Like-named read-outs stand apart in the source and are kept apart here.

This note sets out measurements from patent publication US5028601A, “Cephalosporin compounds and antibacterial agents” (Meiji Saika Kaisha, Ltd., priority 1987, dated 1991).

Common to all, as to type: cell-based
Common to all, as to set-up: unit not given here

The subject of one assay is Escherichia coli No. 29. The assay can be described thus: Minimum growth inhibitory concentration, Escherichia coli No. 29.
Assay [1] deals with Staphylococcus aureus 209P JC-1. The experiment in a line: Minimum growth inhibitory concentration, Staphylococcus aureus 209P JC-1.
Assay [2] has as its system Pseudomonas aeruginosa E-2. The assay can be described thus: Minimum growth inhibitory concentration, Pseudomonas aeruginosa E-2.
Assay [3] relates to Pseudomonase cepacia M-0527. The assay can be described thus: Minimum growth inhibitory concentration, Pseudomonase cepacia M-0527.
The test system of assay [4] is Staphylococcus aureus Smith (1). The experiment in a line: Minimum growth inhibitory concentration, Staphylococcus aureus Smith (1).
The subject of assay [5] is Enterobacter cloacae GN-471. The assay can be described thus: Minimum growth inhibitory concentration, Enterobacter cloacae GN-471.
For assay [6], the system named is Pseudomonas aeruginosa M-0148. The experiment in a line: Minimum growth inhibitory concentration, Pseudomonas aeruginosa M-0148.
The next assay relates to Proteus vulgaris GN-76. The experiment in a line: Minimum growth inhibitory concentration, Proteus vulgaris GN-76.
The test system of assay [7] is Pseudomonas aeruginosa IAM-1007. The experiment in a line: Minimum growth inhibitory concentration, Pseudomonas aeruginosa IAM-1007.
In assay [8] the test system is Serratia marcescens No. 1. The assay can be described thus: Minimum growth inhibitory concentration, Serratia marcescens No. 1.
For assay [9], the system named is Bacillus subtilis ATCC6633. The experiment in a line: Minimum growth inhibitory concentration, Bacillus subtilis ATCC6633.
Assay [10] has as its system Citrobacter freundii GN-346. The assay can be described thus: Minimum growth inhibitory concentration, Citrobacter freundii GN-346.
The next assay deals with Escherichia coli No. 255. The assay can be described thus: Minimum growth inhibitory concentration, Escherichia coli No. 255.
In another assay the test system is Proteus rettgeri GN-624. The experiment in a line: Minimum growth inhibitory concentration, Proteus rettgeri GN-624.
Assay [11] relates to Klebsiella pneumoniae GN-69. The experiment in a line: Minimum growth inhibitory concentration, Klebsiella pneumoniae GN-69.
Setting [12] is: Staphylococcus aureus 209P JC-1.
Setting [13] is: Staphylococcus aureus Smith (1).
Setting [14] is: Pseudomonas aeruginosa IAM-1007.

For `Nc1nc(/C(=N/OCc2cc(=O)c(O)c[nH]2)C(=O)N[C@@H]2C(=O)N3C(C(=O)[O-])=C(C[n+]4ccccc4)CS[C@H]23)cs1` [A, reference compound], the “Minimum Growth Inhibitory Concentration” value with Escherichia coli No. 29 amounted to 0.20; in [1] (setting [12]), 3.13; in [2] (Pseudomonas aeruginosa E-2), 3.13; in [3] it was 0.39; in assay [4] (setting [13]) it was 3.13; in [5] (Enterobacter cloacae GN-471), 3.13. For the same molecule, the “Minimum Growth Inhibitory Concentration” value in [6] (Pseudomonas aeruginosa M-0148) amounted to 25; with Proteus vulgaris GN-76 (Proteus vulgaris GN-76) it was 0.20; in [7] (setting [14]), 3.13; in assay [8] (Serratia marcescens No. 1), 0.20; in assay [9] (Bacillus subtilis ATCC6633), 1.56; in assay [10] (Citrobacter freundii GN-346) it was 25. Also, the entries for the “Minimum Growth Inhibitory Concentration” value (in the assay on Escherichia coli No. 255; with Proteus rettgeri GN-624 (Proteus rettgeri GN-624); in [11] (Klebsiella pneumoniae GN-69)) were 1.56, 12.5 and 0.20, respectively.

Regarding `CC(C)(O/N=C(\C(=O)N[C@@H]1C(=O)N2C(C(=O)[O-])=C(C[n+]3ccccc3)CS[C@H]12)c1csc(N)n1)C(=O)O` [B, Ceftazidime, reference compound], the “Minimum Growth Inhibitory Concentration” value in the assay with Escherichia coli No. 29 is 0.20; in assay [1], 3.13; in assay [2] it was 1.56; in assay [3], 0.78; in [4] it was 3.13; in assay [5], 3.13. The “Minimum Growth Inhibitory Concentration” value in assay [6] is listed as 3.13; in the assay on Proteus vulgaris GN-76, 0.05; in assay [7] it was 1.56; in [8], below 0.025; in assay [9], 6.25; in [10] it was 50. The “Minimum Growth Inhibitory Concentration” value is recorded as 0.39 with Proteus rettgeri GN-624 and 0.10 in assay [11].

For the molecule `C[n+]1ccc(SCC2=C(C(=O)[O-])N3C(=O)[C@@H](NC(=O)/C(=N\OCc4cc(=O)c(O)cn4O)c4csc(N)n4)[C@H]3SC2)cc1` [Example 1, (6R,7R)-7-[(Z)-2-(2-Aminothiazole-4-yl)-2-(1,5-dihydroxy-4-pyridone-2-yl)methoxyiminoacetamido]-3-(1-methylpyridinium-4-yl)thiomethyl-ceph-3em-4-carboxylate], the “Minimum Growth Inhibitory Concentration” value in the assay on Escherichia coli No. 29 is listed as 0.05; in assay [1] (setting [12]) it was 3.13; in [2] (Pseudomonas aeruginosa E-2), 0.05; in assay [3], below 0.025; in [4] (setting [13]), 3.13; in [5] (Enterobacter cloacae GN-471), 1.56. Besides, the “Minimum Growth Inhibitory Concentration” value in assay [6] (Pseudomonas aeruginosa M-0148) is 0.20; with Proteus vulgaris GN-76 (Proteus vulgaris GN-76), 0.05; in assay [7] (setting [14]) it was 0.10; in assay [8] (Serratia marcescens No. 1), 0.05; in assay [9] (Bacillus subtilis ATCC6633) it was 12.5; in assay [10] (Citrobacter freundii GN-346), 12.5. Besides, the “Minimum Growth Inhibitory Concentration” value is given as 0.10 in the assay on Escherichia coli No. 255, 0.10 with Proteus rettgeri GN-624 (Proteus rettgeri GN-624) and below 0.025 in [11] (Klebsiella pneumoniae GN-69).

For the molecule `Nc1nc(/C(=N/OCc2cc(=O)c(O)cn2O)C(=O)N[C@@H]2C(=O)N3C(C(=O)[O-])=C(CSc4cc[n+](CCO)cc4)CS[C@H]23)cs1` [Example 3, (6R,7R)-7-[(Z)-2-(2 Aminothiazole-4-yl)-2-(1,5-dihydroxy-4-pyridone-2-yl)methoxyiminoacetamido]-3-[1-(2-hydroxyethyl)pyridinium-4-yl]thiomethyl-ceph-3-em-4-carboxylate], the “Minimum Growth Inhibitory Concentration” value in the assay with Escherichia coli No. 29 is recorded as 0.05; in [1] (setting [12]), 3.13; in assay [2] (Pseudomonas aeruginosa E-2) it was 0.05; in assay [3] it was below 0.025; in assay [4] (setting [13]), 6.25; in assay [5] (Enterobacter cloacae GN-471) it was 1.56. In addition, the “Minimum Growth Inhibitory Concentration” value is 0.20 in assay [6] (Pseudomonas aeruginosa M-0148); 0.05 in the assay with Proteus vulgaris GN-76 (Proteus vulgaris GN-76); 0.10 in assay [7] (setting [14]); 0.10 in assay [8] (Serratia marcescens No. 1); 12.5 in [9] (Bacillus subtilis ATCC6633); 6.25 in assay [10] (Citrobacter freundii GN-346). The “Minimum Growth Inhibitory Concentration” value was 0.20 in the assay on Escherichia coli No. 255, 0.10 in the assay with Proteus rettgeri GN-624 (Proteus rettgeri GN-624) and 0.05 in [11] (Klebsiella pneumoniae GN-69).

As for `C[n+]1ccc(SCC2=C(C(=O)[O-])N3C(=O)[C@@H](NC(=O)/C(=N\OCc4cc(=O)c(O)cn4O)c4csc(N)n4)[C@H]3SC2)c2c1CCC2` [Example 4], the “Minimum Growth Inhibitory Concentration” value is below 0.025 with Escherichia coli No. 29; 3.13 in assay [1] (setting [12]); 0.10 in assay [2] (Pseudomonas aeruginosa E-2); below 0.025 in assay [3]; 6.25 in assay [4] (setting [13]); 0.78 in [5] (Enterobacter cloacae GN-471). The “Minimum Growth Inhibitory Concentration” value is listed as 0.10 in assay [6] (Pseudomonas aeruginosa M-0148); below 0.025 with Proteus vulgaris GN-76 (Proteus vulgaris GN-76); 0.10 in assay [7] (setting [14]); 0.10 in assay [8] (Serratia marcescens No. 1); 12.5 in assay [9] (Bacillus subtilis ATCC6633); 1.56 in [10] (Citrobacter freundii GN-346). Moreover, the “Minimum Growth Inhibitory Concentration” value is reported as 0.20 with Escherichia coli No. 255, 0.20 in the assay with Proteus rettgeri GN-624 (Proteus rettgeri GN-624) and 0.10 in [11] (Klebsiella pneumoniae GN-69).

With `Cn1c(SCC2=C(C(=O)O)N3C(=O)[C@@H](NC(=O)/C(=N\OCc4cc(=O)c(O)cn4O)c4csc(N)n4)[C@H]3SC2)nnc(O)c1=O` [Example 9, (6R,7R)-7-[(Z)-2-(2-Aminothiazole-4-yl)-2-(1,5-dihydroxy-4-pyridone-2-yl)methoxyiminoacetamido]-3-(4,5-dihydro-4-methyl 5-oxo-6-hydroxy-1,2,4-triazine-3-yl)thiomethyl-ceph-3-em-4-carboxylic acid], the “Minimum Growth Inhibitory Concentration” value in the assay on Escherichia coli No. 29 is given as below 0.025; in assay [1] (setting [12]), 6.25; in assay [2] (Pseudomonas aeruginosa E-2) it was 0.05; in assay [3], below 0.025; in assay [4] (setting [13]) it was 12.5; in [5] (Enterobacter cloacae GN-471) it was 3.13. Also, the “Minimum Growth Inhibitory Concentration” value is listed as 0.39 in [6] (Pseudomonas aeruginosa M-0148); below 0.025 with Proteus vulgaris GN-76 (Proteus vulgaris GN-76); 0.39 in assay [7] (setting [14]); 0.05 in assay [8] (Serratia marcescens No. 1); 12.5 in [9] (Bacillus subtilis ATCC6633); 3.13 in assay [10] (Citrobacter freundii GN-346). The figures for the “Minimum Growth Inhibitory Concentration” value (in the assay with Escherichia coli No. 255; with Proteus rettgeri GN-624 (Proteus rettgeri GN-624); in assay [11] (Klebsiella pneumoniae GN-69)) were 0.20, 0.20 and below 0.025, respectively.

For the molecule `Nc1nc(/C(=N/OCc2cc(=O)c(O)cn2O)C(=O)N[C@@H]2C(=O)N3C(C(=O)[O-])=C(C[n+]4ccccc4)CS[C@H]23)cs1` [Example 14, (6R,7R)-7-[(Z)-2-(2-Aminothiazole-4-yl)-2-(1,5-dihydroxy-4-pyridone-2-yl)methoxyiminoacetamido]-3-pyridiniummethyl-ceph-3-em-4-carboxylate], the “Minimum Growth Inhibitory Concentration” value with Escherichia coli No. 29 is given as 0.10; in assay [1] (setting [12]), 6.25; in assay [2] (Pseudomonas aeruginosa E-2), 0.10; in [3], below 0.025; in assay [4] (setting [13]) it was 6.25; in assay [5] (Enterobacter cloacae GN-471) it was 3.13. Further, the “Minimum Growth Inhibitory Concentration” value is 0.78 in assay [6] (Pseudomonas aeruginosa M-0148); 0.20 in the assay on Proteus vulgaris GN-76 (Proteus vulgaris GN-76); 0.39 in [7] (setting [14]); 0.10 in assay [8] (Serratia marcescens No. 1); 12.5 in [9] (Bacillus subtilis ATCC6633); 6.25 in assay [10] (Citrobacter freundii GN-346). Moreover, the “Minimum Growth Inhibitory Concentration” value is 0.78 in the assay on Escherichia coli No. 255, 3.13 in the assay on Proteus rettgeri GN-624 (Proteus rettgeri GN-624) and 0.10 in assay [11] (Klebsiella pneumoniae GN-69).
